Source: patent publication US9877956B2, “Antiviral compounds and methods of use thereof” (Trana Discovery, Inc., priority 2014, dated 2018)
≈ marks a conversion by molar mass, not a printed value. Where “and” joins values, the source holds several entries; their conditions need not be identical. Identical values can stand only once.

Legend:
Format in all cases: cell-based
[1] = test system: HIV-1/Ba-L; assay: Inhibition of HIV-1 Ba-L replication in PBMC (RT values); conditions: for % VC: RT relative to virus control; for RT Values (cpm), SAMPLE: individual samples
Method: (§1) These compounds were further screened for activity in HIV-1-infected peripheral blood mononuclear cells (PBMC). The data (experiments were repeated, so duplicates are shown) is summarized in the tables below, and also in FIGS. 4A-B and 5A-B.
The HIV strain was HIV-1/Ba-L. The titer was 0.1 μL/well.

[2] = Toxicity in PBMC (Cell Titer 96); conditions: human, peripheral blood mononuclear cells (PBMC); PBMC, Cell Titer 96
From the text: as §1

[3] = test system: PBMC; assay: Toxicity in PBMC (Cell Titer 96); conditions: for % CC: O.D. relative to cell control; for TOXICITY VALUES (Cell Titer 96 - O.D. @ 490/650 nm), SAMPLE: individual samples
From the text: as §1

[4] = test system: HIV-1 92/HT/599; assay: HIV-1 92/HT/599 replication in human PBMCs, reverse transcriptase in culture supernatants (RLU); conditions: for RLU (Relative Light Units), SAMPLE: individual samples, listed as Trana 154
Method: (§2) In these studies, PHA-P stimulated PBMCs from three donors were pooled together and re-suspended in fresh tissue culture medium at 1×10^6 cells/mL and plated in the interior wells of a 96 well round bottom microplate at 50µl/well. A 100µL volume of 9 concentrations of compound serially diluted were transferred to the round-bottom 96 well plate containing the cells in triplicate. Fifty microliters (µL) of HIV-1 at a pre-determined dilution was added. Each plate contained cell control wells and virus control wells in parallel with the experimental wells. After 7 days in culture, efficacy was evaluated by measuring the reverse transcriptase in the culture supernatants and the cells were stained with the tetrazolium dye XTT to evaluate cytotoxicity.

[5] = test system: HUMAN PBMCS; assay: Cytotoxicity in human PBMCs (XTT); conditions: for TOXICITY VALUES (XTT - O.D. @ 450/650 nm), SAMPLE: individual samples, listed as Trana 154
Method: as §2

Q: What does the source list for c1ccc(N/N=C2/CCc3ccccc3N2)cc1 [HIT #154]?
A: RT Values (cpm), MEAN ([1]; 0.01 μM): 29112.2 cpm; % VC ([1]; 0.01 μM): 98.8%; RT Values (cpm), SAMPLE ([1]; 0.01 μM): 31907 cpm and 25645 cpm and 29785 cpm; RT Values (cpm), MEAN ([1]; 0.03 μM): 29394.5 cpm; % VC ([1]; 0.03 μM): 99.8%; RT Values (cpm), SAMPLE ([1]; 0.03 μM): 28419 cpm and 27673 cpm and 32092 cpm; RT Values (cpm), MEAN ([1]; 0.10 μM): 28793.5 cpm; % VC ([1]; 0.10 μM): 97.8%; RT Values (cpm), SAMPLE ([1]; 0.10 μM): 24503 cpm and 28356 cpm and 33522 cpm; RT Values (cpm), MEAN ([1]; 0.32 μM): 28067.5 cpm; % VC ([1]; 0.32 μM): 95.3%; RT Values (cpm), SAMPLE ([1]; 0.32 μM): 30361 cpm and 24204 cpm and 29638 cpm; RT Values (cpm), MEAN ([1]; 1.00 μM): 19065.5 cpm; % VC ([1]; 1.00 μM): 64.7%; RT Values (cpm), SAMPLE ([1]; 1.00 μM): 18120 cpm and 21373 cpm and 17704 cpm; RT Values (cpm), MEAN ([1]; 3.16 μM): 15141.8 cpm; % VC ([1]; 3.16 μM): 51.4%; RT Values (cpm), SAMPLE ([1]; 3.16 μM): 12447 cpm and 16921 cpm and 16058 cpm; RT Values (cpm), MEAN ([1]; 10.0 μM): 12407.5 cpm; % VC ([1]; 10.0 μM): 42.1%; RT Values (cpm), SAMPLE ([1]; 10.0 μM): 13978 cpm and 10363 cpm and 12882 cpm; RT Values (cpm), MEAN ([1]; 31.6 μM): 9086.8 cpm; % VC ([1]; 31.6 μM): 30.9%; RT Values (cpm), SAMPLE ([1]; 31.6 μM): 10815 cpm and 7472 cpm and 8974 cpm; RT Values (cpm), MEAN ([1]; 100 μM): 2467.8 cpm; % VC ([1]; 100 μM): 8.4%; RT Values (cpm), SAMPLE ([1]; 100 μM): 3062 cpm and 2720 cpm and 1622 cpm; IC 95% ([1]; HIV-1 Ba-L in PBMC): 65.1 µM and >100 µM; ANTIVIRAL INDEX (AI) 95% ([1]; TC/IC at 95%): >1.54; CC50 [2]: > 100 µM; TOXICITY VALUES (Cell Titer 96 - O.D. @ 490/650 nm), MEAN ([3]; 0.01 μM): 0.990 O.D.; % CC ([3]; 0.01 μM): 119.6%; TOXICITY VALUES (Cell Titer 96 - O.D. @ 490/650 nm), SAMPLE ([3]; 0.01 μM): 1.163 O.D. and 1.007 O.D. and 0.800 O.D.; TOXICITY VALUES (Cell Titer 96 - O.D. @ 490/650 nm), MEAN ([3]; 0.03 μM): 0.810 O.D.; % CC ([3]; 0.03 μM): 97.9%; TOXICITY VALUES (Cell Titer 96 - O.D. @ 490/650 nm), SAMPLE ([3]; 0.03 μM): 0.746 O.D. and 0.831 O.D. and 0.853 O.D.; TOXICITY VALUES (Cell Titer 96 - O.D. @ 490/650 nm), MEAN ([3]; 0.10 μM): 0.966 O.D.; % CC ([3]; 0.10 μM): 116.8%; TOXICITY VALUES (Cell Titer 96 - O.D. @ 490/650 nm), SAMPLE ([3]; 0.10 μM): 1.086 O.D. and 0.970 O.D. and 0.843 O.D.; TOXICITY VALUES (Cell Titer 96 - O.D. @ 490/650 nm), MEAN ([3]; 0.32 μM): 0.937 O.D.; % CC ([3]; 0.32 μM): 113.3%; TOXICITY VALUES (Cell Titer 96 - O.D. @ 490/650 nm), SAMPLE ([3]; 0.32 μM): 0.736 O.D. and 1.231 O.D. and 0.845 O.D.; TOXICITY VALUES (Cell Titer 96 - O.D. @ 490/650 nm), MEAN ([3]; 1.00 μM): 1.077 O.D.; % CC ([3]; 1.00 μM): 130.2%; TOXICITY VALUES (Cell Titer 96 - O.D. @ 490/650 nm), SAMPLE ([3]; 1.00 μM): 1.296 O.D. and 1.045 O.D. and 0.892 O.D.; TOXICITY VALUES (Cell Titer 96 - O.D. @ 490/650 nm), MEAN ([3]; 3.16 μM): 0.964 O.D.; % CC ([3]; 3.16 μM): 116.5%; TOXICITY VALUES (Cell Titer 96 - O.D. @ 490/650 nm), SAMPLE ([3]; 3.16 μM): 1.146 O.D. and 0.903 O.D. and 0.843 O.D.; TOXICITY VALUES (Cell Titer 96 - O.D. @ 490/650 nm), MEAN ([3]; 10.0 μM): 0.937 O.D.; % CC ([3]; 10.0 μM): 113.2%; TOXICITY VALUES (Cell Titer 96 - O.D. @ 490/650 nm), SAMPLE ([3]; 10.0 μM): 0.712 O.D. and 1.254 O.D. and 0.846 O.D.; TOXICITY VALUES (Cell Titer 96 - O.D. @ 490/650 nm), MEAN ([3]; 31.6 μM): 0.962 O.D.; % CC ([3]; 31.6 μM): 116.3%; TOXICITY VALUES (Cell Titer 96 - O.D. @ 490/650 nm), SAMPLE ([3]; 31.6 μM): 0.898 O.D. and 1.018 O.D. and 0.970 O.D.; TOXICITY VALUES (Cell Titer 96 - O.D. @ 490/650 nm), MEAN ([3]; 100 μM): 0.769 O.D.; % CC ([3]; 100 μM): 92.9%; TOXICITY VALUES (Cell Titer 96 - O.D. @ 490/650 nm), SAMPLE ([3]; 100 μM): 0.757 O.D. and 0.854 O.D. and 0.697 O.D.; TC 90% ([3]; PBMC, Cell Titer 96): >100 µM; TC 95% ([3]; PBMC, Cell Titer 96): >100 µM; % Virus Control ([4]; 0.32 μg/ml): 84.00%; Antiviral Test Values Mean RLU ([4]; 0.32 μg/ml): 16201.3 RLU; RLU (Relative Light Units), SAMPLE ([4]; 0.32 μg/ml): 27495.0 RLU and 14218.0 RLU and 6891.0 RLU; % Virus Control ([4]; 1 μg/ml): 78.40%; Antiviral Test Values Mean RLU ([4]; 1 μg/ml): 15121.3 RLU; RLU (Relative Light Units), SAMPLE ([4]; 1 μg/ml): 10410.0 RLU and 21914.0 RLU and 13031.0 RLU; % Virus Control ([4]; 3.16 μg/ml): 41.46%; Antiviral Test Values Mean RLU ([4]; 3.16 μg/ml): 7996.7 RLU; RLU (Relative Light Units), SAMPLE ([4]; 3.16 μg/ml): 11407.0 RLU and 10934.0 RLU and 1649.0 RLU; % Virus Control ([4]; 9.99 μg/ml): 48.92%; Antiviral Test Values Mean RLU ([4]; 9.99 μg/ml): 9436.3 RLU; RLU (Relative Light Units), SAMPLE ([4]; 9.99 μg/ml): 13230.0 RLU and 13148.0 RLU and 1933.0 RLU; % Virus Control ([4]; 31.6 μg/ml): 35.47%; Antiviral Test Values Mean RLU ([4]; 31.6 μg/ml): 6841.0 RLU; RLU (Relative Light Units), SAMPLE ([4]; 31.6 μg/ml): 5800.0 RLU and 7652.0 RLU and 7462.0 RLU; % Virus Control ([4]; 100 μg/ml): 6.75%; Antiviral Test Values Mean RLU ([4]; 100 μg/ml): 1301.3 RLU; RLU (Relative Light Units), SAMPLE ([4]; 100 μg/ml): 1021.0 RLU and 744.0 RLU and 2139.0 RLU; EC 25% ([4]; HIV-1 92/HT/599, human PBMCs): 1.11 µg/mL (≈ 4.68 µM); EC 95% ([4]; HIV-1 92/HT/599, human PBMCs): >100 µg/mL; EC50 ([4]; Human immunodeficiency virus 1, PBMC, read-out: EC50 (EC 50%), HIV-1 92/HT/599, human PBMCs): 2.42 µg/mL (≈ 10.2 µM); Therapeutic Index (TI) 25% ([4]; TC/EC at 25%): 20.09; Therapeutic Index (TI) 50% ([4]; TC/EC at 50%): 33.76; Therapeutic Index (TI) 95% ([4]; TC/EC at 95%): 1; % Cell Viability ([5]; 0.32 μg/ml): 92.64%; Cytotoxicity Test Values Mean OD @ 450/650 nm ([5]; 0.32 μg/ml): 1.038 OD; TOXICITY VALUES (XTT - O.D. @ 450/650 nm), SAMPLE ([5]; 0.32 μg/ml): 0.9729 O.D. and 1.0510 O.D. and 1.0896 O.D.; % Cell Viability ([5]; 1 μg/ml): 87.74%; Cytotoxicity Test Values Mean OD @ 450/650 nm ([5]; 1 μg/ml): 0.983 OD; TOXICITY VALUES (XTT - O.D. @ 450/650 nm), SAMPLE ([5]; 1 μg/ml): 0.9683 O.D. and 1.0187 O.D. and 0.9670 O.D.; % Cell Viability ([5]; 3.16 μg/ml): 88.82%; Cytotoxicity Test Values Mean OD @ 450/650 nm ([5]; 3.16 μg/ml): 0.995 OD; TOXICITY VALUES (XTT - O.D. @ 450/650 nm), SAMPLE ([5]; 3.16 μg/ml): 0.9103 O.D. and 1.0889 O.D. and 0.9881 O.D.; % Cell Viability ([5]; 9.99 μg/ml): 99.35%; Cytotoxicity Test Values Mean OD @ 450/650 nm ([5]; 9.99 μg/ml): 1.113 OD; TOXICITY VALUES (XTT - O.D. @ 450/650 nm), SAMPLE ([5]; 9.99 μg/ml): 1.1959 O.D. and 0.9242 O.D. and 1.2189 O.D.; % Cell Viability ([5]; 31.6 μg/ml): 64.38%; Cytotoxicity Test Values Mean OD @ 450/650 nm ([5]; 31.6 μg/ml): 0.721 OD; TOXICITY VALUES (XTT - O.D. @ 450/650 nm), SAMPLE ([5]; 31.6 μg/ml): 0.6103 O.D. and 0.6005 O.D. and 0.7620 O.D.; % Cell Viability ([5]; 100 μg/ml): 46.94%; Cytotoxicity Test Values Mean OD @ 450/650 nm ([5]; 100 μg/ml): 0.526 OD; TOXICITY VALUES (XTT - O.D. @ 450/650 nm), SAMPLE ([5]; 100 μg/ml): 0.4574 O.D. and 0.5742 O.D. and 0.5461 O.D.; TC 25% ([5]; human PBMCs, XTT): 22.3 µg/mL (≈ 94 µM); TC50 (TC 50%) ([5]; human PBMCs, XTT): 81.7 µg/mL (≈ 344 µM); TC 95% ([5]; human PBMCs, XTT): >100 µg/mL
